According to patent publication US20140178327A1, “Antimicrobial Ophthalmic Devices” (CooperVision International Holding Company, LP, priority 2012, published 2014):

Assays:
Format in all cases: cell-based
[1] = tested on: Pseudomonas aeruginosa (PA) ATCC 9027; experiment: In vitro biofilm assay; settings: for Log εPLL (log CFU recovered per εPLL lens): 10^7 CFU/mL, 2 hours adhesion, 24 hours biofilm growth; for Log Reduction: versus control lens
Description: (§1) Lenses at the 0 hour time point and from the 168 hour time point were used to test whether they supported biofilm formation. The lenses were rinsed for 5 seconds in 2.5 mL of sterile PBS then transferred into an individual well of a 24-well plate containing 1.0 mL of bacterial inoculum at approximately 10^7CFU/mL, prepared as described in Example 5. The plates were incubated for 2 hours on a 37° C. with gentle rotary agitation. The remaining inoculum, i.e. not incubated with lenses, was also incubated on the shaker for the duration of each experiment to determine the cfu/mL of the inoculum at t=2 hr and t=24 hr. After 2 hours incubation each lens was washed using the bacterial wash step described in Example 5 then placed on an insert of a 24-well plate for biofilm formation as described below. The inoculum concentration (at t=0 hr and 2 hr) was confirmed by serial dilution, plating onto TSA, incubating overnight at 37° C. and colony counting.
(§2) Custom-made mushroom-shaped stainless steel inserts, depicted in FIG. 1, were placed in each well of a 24-well plate. The cap portion of each insert has a diameter of approximately 14 mm and a curvature to match the posterior surface of a contact lens. The height of each insert is approximately 11 mm. One mL of sterile media/diluent was added to each well. Each preloaded, washed lens (as described above) was placed on the top (cap portion) of an insert, convex side up. The dimensions of the inserts and the volume of the media are such that the periphery of the placed lens is in contact with the media/diluent and the center portion of the lens is at the liquid/air interface. Plates were loosely sealed to prevent evaporation, and incubated for 24 hours at 37° C., with rotary agitation. After incubation, each lens was subjected to the bacterial wash step as described in Example 5. Bacteria were recovered from the washed lenses and log kill calculated as described above in Example 5. Each t-24 hr inoculum concentration was confirmed as described above for t=0 and t=2 hr time points.

[2] = tested on: Serratia marcescens (SM) ATCC 6538; experiment: In vitro biofilm assay; settings: for Log εPLL (log CFU recovered per εPLL lens): 10^7 CFU/mL, 2 hours adhesion, 24 hours biofilm growth; for Log Reduction: versus control lens
Description: as §1, §2

[3] = tested on: Pseudomonas aeruginosa (PA) ATCC 9027; experiment: In vitro bioactivity assay; settings: for log kill εPLL: Formulation F lens autoclaved in 500 ppm εPLL in PBS
Description: (§3) Cultures were prepared from growing a single colony of each of the bacterial species shown in Table 3 below in 50 ml. trypticase soy broth (TSB) overnight at 37° C. on a rotary shaker. 1 ml of each culture was centrifuged, and the bacterial pellet resuspended in 1.0 ml of the diluent shown in Table 3, where PBST is 19 mM PBS at pH 7.3 (0.83 wt. % NaCl, 0.03 wt. % sodium phosphate monobasic, and 0.24% sodium phosphate dibasic) with 0.05% Tween. For each bacterial species, a suspension of approximately 10^8CFU/mL was prepared by diluting the bacterial suspension to achieve the optical density indicated in Table 3.
(§4) Each suspension was further diluted to approximately 10^4CFU/mL (low inoculum) or 10^7CFU/mL (high inoculum) using the above diluents to make the bacterial inoculums for testing bioactivity of lenses.
(§5) Each lens was rinsed in 2.5 ml sterile PBS for a few seconds, and transferred into an individual well of a 24-well plate containing 1.0 ml of bacteria inoculum. The plates were incubated at 37° C. with gentle shaking. The original inoculums were incubated for the duration of the experiment to confirm the concentrations at each sample recovery time point. At the time point tested, each lens was removed from its well and transferred to a well of a 12-well plate containing 2.5 mL of sterile PBST. The plate was gently swirled gently for about 30 seconds. This step was repeated once for each lens. Such 2× wash step is referred to herein as the bacterial wash step.
(§6) Each washed lens was placed in a microcentrifuge tube containing 1 ml of Dey-Engley (DE) neutralizing broth and adhered bacteria were removed by a combination of sonication for about 2 minutes and vortexing for about 10 minutes. Serial dilutions were made for each recovered cell suspension using DE neutralizing broth and suitable dilutions were plated onto TSA. Plates were incubated overnight at 37° C. and CFUs were counted.
(§7) The CFU for each plate was multiplied by the dilution factor (DF) as well as the plating dilution factor (PDF). The total CFUs recovered for a given sample were then converted to the log 10. To calculate the log kill of an antimicrobial lens, the log of CFU/lens of the antimicrobial lens is subtracted from that of the control lens. For example, if the mean log 10 value of an antimicrobial lens is 1.05 and the mean log 10 value of an otherwise identical control lens lacking the active antimicrobial agent is 5.52, the log kill is 5.52−1.05=4.47.

[4] = tested on: Staphylococcus aureus (SA) ATCC 13880; experiment: In vitro bioactivity assay; settings: for log kill of SA: ionic silicone hydrogel contact lens with about 10 μg PQ-1 and/or about 200 μg εPLL, 24 hour incubation, 10^7 inoculum; for log kill εPLL: Formulation F lens autoclaved in 500 ppm εPLL in PBS
Description: as §3, §4, §5, §6, §7

[5] = tested on: Serratia marcescens (SM) ATCC 6538; experiment: In vitro bioactivity assay; settings: for log kill of SM: ionic silicone hydrogel contact lens with about 10 μg PQ-1 and/or about 200 μg εPLL, 24 hour incubation, 10^7 inoculum; for log kill εPLL: Formulation F lens autoclaved in 500 ppm εPLL in PBS
Description: as §3, §4, §5, §6, §7

[6] = tested on: Staphylococcus aureus (SA) ATCC 13880; experiment: In vitro biofilm assay; settings: for Log εPLL (log CFU recovered per εPLL lens): 10^7 CFU/mL, 2 hours adhesion, 24 hours biofilm growth; for Log Reduction: versus control lens
Description: as §1, §2

[7] = lenses packaged in PBS containing 30 μg/ml PQ-1
[8] = Formulation F lenses without εPLL, 72 hours in PBS plus PQ-1, high inoculum (10^7), 24-hour incubation
[9] = SA, Formulation F lenses without εPLL, 72 hours in PBS plus PQ-1, high inoculum (10^7), 24-hour incubation
[10] = SM, Formulation F lenses without εPLL, 72 hours in PBS plus PQ-1, high inoculum (10^7), 24-hour incubation

## polyquarternium-1 [PQ-1]
[1]; [7]
  antimicrobial activity in biofilm assay: lack of antimicrobial activity
[2]; [7]
  antimicrobial activity in biofilm assay: lack of antimicrobial activity
[3]; 24 hr, Formulation F lens without εPLL
  log kill 10 μ/ml PQ-1: −0.23
[3]; [8]
  log kill at 10 μg/ml PQ-1: −0.23
  log kill at 30 μg/ml PQ-1: 0.16
  log kill at 100 μg/ml PQ-1: 3.43
[4]; SA, 24 hr, Formulation F lens without εPLL
  log kill 10 μ/ml PQ-1: −0.74
[4]; [9]
  log kill at 10 μg/ml PQ-1: −0.54
  log kill at 30 μg/ml PQ-1: 1.47
  log kill at 100 μg/ml PQ-1: 3.04
[4]
  log kill of SA: no significant activity
[5]; SM, 24 hr, Formulation F lens without εPLL
  log kill 10 μ/ml PQ-1: 0.55
[5]; [10]
  log kill at 10 μg/ml PQ-1: −0.55
  log kill at 30 μg/ml PQ-1: 0.55
  log kill at 100 μg/ml PQ-1: 0.31
[5]
  log kill of SM: no significant activity

## ε-polylysine [εPLL]
[1]; 0 hr wash lenses
  Log εPLL (log CFU recovered per εPLL lens): 0.9
  Log Reduction: 5.0
[1]; 168 hr wash lenses
  Log εPLL (log CFU recovered per εPLL lens): 0.6
  Log Reduction: 4.9
[6]; 0 hr wash lenses
  Log εPLL (log CFU recovered per εPLL lens): 0.8
  Log Reduction: 3.7
[6]; 168 hr wash lenses
  Log εPLL (log CFU recovered per εPLL lens): 3.1
  Log Reduction: 2.4
[2]; 0 hr wash lenses
  Log εPLL (log CFU recovered per εPLL lens): 1.0
  Log Reduction: 3.5
[2]; 168 hr wash lenses
  Log εPLL (log CFU recovered per εPLL lens): 3.8
  Log Reduction: 1.7
[3]; 2 hr
  log kill εPLL: 2.63
[3]; 6 hr
  log kill εPLL: 4.04
[3]; 24 hr
  log kill εPLL: ≧4.04
[4]; SA, 2 hr
  log kill εPLL: −0.06
[4]; SA, 6 hr
  log kill εPLL: 0.37
[4]; SA, 24 hr
  log kill εPLL: 1.85
[4]
  log kill of SA: ~2 log
[5]; SM, 2 hr
  log kill εPLL: 0.19
[5]; SM, 6 hr
  log kill εPLL: 0.74
[5]; SM, 24 hr
  log kill εPLL: 1.63
[5]
  log kill of SM: ~1.5 log
